Laboratory results published in patent publication US5610297A, “Peptides ketoamides” (Georgia Tech Research Corp., priority 1995, dated 1997).

Tests used:
[1] = target: cathepsin B; assay: Inhibition of cathepsin B; type: biochemical; settings: read-out: KI Cath B
Method: Materials and Methods. HEPES, heparin, and A23187 were obtained from Calbiochem. Suc-Leu-Tyr-AMC and chromogenic substrates were obtained from Sigma. Calpain I was purified from human erythrocytes according to the method of Kitahara (Kitahara et al., J. Biochem. 95, 1759-1766) omitting the Blue-Sepharose step. Calpain II from rabbit muscle and cathepsin B were purchased from Sigma. Papain was purchased from Calbiochem.
(§1) Assay of Inhibitory Potency. Peptide α-ketoamides were assayed as reversible enzyme inhibitors. Various concentrations of inhibitors in Me2 SO were added to the assay mixture which contained buffer and substrate. The reaction was started by the addition of the enzyme and the hydrolysis rates were followed spectrophotometrically or fluorimetrically.
Calpain I from human erythrocytes and calpain II from rabbit were assayed using Suc-Leu-Tyr-AMC [Sasaki et al., J. Biol. Chem. 259, 12489-12494 (1984); incorporated herein by reference], and the AMC (7-amino-4-methylcoumarin) release was followed fluorimetrically (excitation at 380 nm, and emmision at 460 nm). Calpains were assayed in 25 mM Tris pH=8.0, 10 mM CaCl2. Fluorescence was followed using a Gilson FL-1A fluorometer or a Perkin-Elmer 203 Fluorescence spectrometer. Cathepsin B was assayed in 20 mM sodium acetate pH=5.2, 0.5 mM dithiothreitol using Bz-Phe-Val-Arg-p-nitroanilide as substrate. Alternately, cathepsin B was assayed with Z-Arg-Arg-AFC [Barrett and Kirschke, Methods Enzymol. 80, 535-561 (1981); incorporated herein by reference], and the AFC (7-amino-4-trifluoromethylcoumarin) release was followed fluorimetrically (excitation at 400 nm and emmision at 505 nm). Papain was assayed in 100 mM KPO4, 1 mM EDTA, 2.5 mM cysteine pH=6.0 using Bz-Arg-AMC or Bz-Arg-NA [Kanaoka et al., Chem. Plmrm. Bull. 25, 3126-3128 (1977); incorporated herein by reference] as a substrate. The AMC (7-amino-4-methylcoumarin) release was followed fluorimetrically (excitation at 380 nm, and emmision at 460 nm). Enzymatic hydrolysis rates were measured at various substrate and inhibitor concentrations, and KI values were determined by either Lineweaver-Burk plots or Dixon plots.
(§2) A 0.1M Hepes, 0.5M NaCl, pH 7.5 buffer was utilized for human leukocyte elastase (HLE), porcine pancreatic elastase (PPE), chymotrypsin and cathepsin G. A 0.1 Hepes, 0.01M CaCl2, pH 7.5 buffer was utilized for trypsin, plasmin, and coagulation enzymes. A 50 mM Tris-HCl, 2 mM EDTA, 5 mM cysteine, pH 7.5 was used as a buffer for papain. A 88 mM KH2 PO4, 12 mM Na2 HPO4, 1.33 mM EDTA, 2.7 mM cysteine, pH 6.0 solution was used as a buffer for cathepsin B. A 20 mM Hepes, 10 mM CaCl2, 10 mM mercatoethanol, pH 7.2 buffer was utilized for calpain I and calpain II.

[2] = target: chymotrypsin (Bos taurus, UniProt P00766, DEL14-15/DEL147-148); assay: Inhibition of chymotrypsin (Suc-Val-Pro-Phe-NA hydrolysis); type: biochemical, bovine
Method: as §1, §2
(§3) HLE and PPE were assayed with MeO-Suc-Ala-Ala-Pro-Val-NA and Suc-Ala-Ala-Ala-NA, respectively [Nakajima et al., J. Biol. Chem. 254, 4027-4032 (1979); incorporated herein by reference]. Human leukocyte cathepsin G and chymotrypsin Aα were assayed with Suc-Val-Pro-Phe-NA [Tanaka et al., Biochemistry 24, 2040-2047 (1985); incorporated herein by reference]. The hydrolysis of peptide 4-nitroanilides was measured at 410 nm [ε410 =8800 M^-1 cm^-1; Erlanger et al., Arch. Biochem. Biophys. 95, pp 271-278 (1961); incorporated herein by reference]. Trypsin, thrombin, human plasma kallikrein, porcine pancreatic kallikrein, human factor XIa, and human plasmin were assayed with Z-Arg-SBzl or Z-Gly-Arg-SBu-i [McRae et al., Biochemistry 20, 7196-7206 (1981); incorporated herein by reference]. All peptide thioester hydrolysis rates were measured with assay mixtures containing 4,4'-dithiodipyridine [ε324 =19800 M^-1 cm^-1; Grasetti & Murray, Arch. Biochem. Biophys. 119, 41-49 (1967); incorporated herein by reference].

[3] = target: porcine pancreatic elastase (PPE) (Sus scrofa, UniProt P00772); assay: Inhibition of PP elastase (Suc-Ala-Ala-Ala-NA hydrolysis); type: biochemical
Method: as §1, §2, §3

[4] = Half-life in plasma; type: in vitro ADME; settings: unit inferred, unit assumed
[5] = Half-life in liver; type: in vitro ADME; settings: unit inferred, unit assumed
[6] = test system: Calpain-mediated breakdown of spectrin in platelets; assay: Platelet membrane permeability assay; type: cell-based, rat; parameters: unit not given here; settings: numeric value, unit not given
Method: Platelet membrane permeability assay. Calpain-mediated breakdown of spectrin was measured by quantitative densitometry of the calpain-specific 150/155 kDa spectrin fragment doublet [see Siman et al., Proc. Natl. Acad. Sci. USA 81, 3572-3576 (1984)]. Platelets were isolated by a modification of the method of Ferrell and Martin [J. Biol. Chem. 264, 20723-20729 (1989)]. Blood (15-20 ml) was drawn from male Sprague-Dawley rats into 1/10th volume of 100 mM EDTA-citrate, and centrifuged 10 minutes at 2000 rpm in a clinical centrifuge at room temperature. […] Platelets were washed once in 15 ml buffer 1, then resuspended to 10^7 cells/ml in buffer 2 (136 mM NaCl, 2.7 mM KCl, 0.42 mM NaH2 PO4, 12 mM NaHCO3, 2mM MgCl, 1 mg/ml BSA (Sigma), 5.6 mM glucose, 20 mM HEPES (Sigma) pH 7.4) and allowed to "rest" for a minimum of 10 minutes at room temperature before use.
Inhibitors were added from stock solutions made fresh in DMSO. 100 μl platelets, suspended to 10^7 cells/ml in buffer 2, were incubated with 1 μl of an inhibitor solution for 5 minutes at room temperature prior to the addition of 2 mM Ca^2+ and 1 uM A23 187. After 10 minutes total exposure to inhibitor (5 minutes exposure to ionophore) at room temperature, platelets were reisolated at 14,000 rpm for 10 sec in a Beckman microfuge, dissolved in SDS-PAGE sample buffer, and heated to 90° C. for 3 minutes.
Samples were subjected to SDS-PAGE in 4-12% gradient mini gels (Novex) and transferred to nitrocellulose (Schleicher and Schuell 0.45 um) by electroblotting. Filters were blocked for 10 minutes in 0.25% gelatin, 1% BSA, 0.25% triton X100, 0.9% NaCl, 10 mM Tris-Cl pH 7.5, incubated overnight in the same solution containing antibody to rat spectrin, washed 3×10 minutes with 10 mM Tris-Cl pH 7.5, 0.5% triton X100, incubated 4 hours in wash buffer plus alkaline phosphatase conjugated goat anti-rabbit antibody (Biorad), and washed as above. Blots were developed using the Biorad AP conjugate substrate kit. Quantitative densitometry was used to obtain values for the intact spectrin bands and the 150/155 kDa breakdown product doublet.

Sequence of porcine pancreatic elastase (PPE) (P00772 27-266): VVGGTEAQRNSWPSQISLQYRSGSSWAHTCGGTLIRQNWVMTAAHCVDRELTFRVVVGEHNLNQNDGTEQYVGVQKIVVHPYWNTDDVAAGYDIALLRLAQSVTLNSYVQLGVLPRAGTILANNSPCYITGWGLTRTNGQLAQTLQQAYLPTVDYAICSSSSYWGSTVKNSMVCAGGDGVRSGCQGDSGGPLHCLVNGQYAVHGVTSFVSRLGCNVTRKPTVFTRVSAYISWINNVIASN

| Ki [1] [µM] | Ki [2] [µM] | Ki [3] [µM] | t 1/2 plasma [4] [h] | t 1/2 liver [5] [h] | Structure (SMILES) | platelet (Activity in the Platelet Assay) [6] |
| --- | --- | --- | --- | --- | --- | --- |
| 6 | 73 | > 150 | > 1 | > 1 | CCNC(=O)C(=O)[C@H](Cc1ccccc1)NC(=O)[C@H](CC(C)C)NC(=O)OCc1ccccc1 [Z--Leu--Phe--CONH--Et, Z-Leu-Phe-CONH-Et] | 1.7 |
| 13 | > 300 | 5 | > 1 | > 1 | CCCCNC(=O)C(=O)C(CC)NC(=O)C(CC(C)C)NC(=O)OCc1ccccc1 (stereo not drawn) [Z--Leu--Abu--CONH--nBu, Z-Leu-Abu-CONH-nBu] | 2.0 |
| 3 | 18 | > 300 | > 1 | > 1 | CCCNC(=O)C(=O)C(Cc1ccccc1)NC(=O)C(CC(C)C)NC(=O)OCc1ccccc1 (stereo not drawn) [Z--Leu--Phe--CONH--nPr, Z-Leu-Phe-CONH-nPr] | 24 |
| 2.4 | > 150 | 65 | > 1 | > 1 | CCNC(=O)C(=O)[C@H](CC)NC(=O)[C@H](CC(C)C)NC(=O)OCc1ccccc1 [Z--Leu--Abu--CONH--Et, Z-Leu-Abu-CONH-Et] | 1.5 |
